Reference: US6461638B1, “Laxative compositions and method for making same” (Techni-Pharma, priority 1996, dated 2002)

Test: Effervescence measure by release of CO2, Bernard's calcimeter, water heated to 37° C.
Type: physicochemical
Details: acid compound mixed with Na bicarbonate
Text: Effervescence Measure by Release of CO2
Working of the Bernard's calcimeter.
The assay consists in verifying the working of the equipment of the Bernard's calcimeter.
A little modification has been made on the rubber stopper of the lateral neck by adding a tap. This addition is necessary until at time 0, the experiment begins with an inner pressure equal to the atmospheric pressure.
Introduce a saturated sodium chloride solution in the flask and the graduated tube
Adjust the level of the graduated tube before starting the experiment
Lay on the magnetic heating stirrer the flask containing 100 ml of distilled water at 37° C.
Fill up the flask with a stopper previously fixed at the end of the releasing tube of CO2
Introduce the suppository in the flask without contact occurring between the suppository and the water
Verify again the sodium chloride level in the graduated tube before turning off the tap of the side stopper
Turn on the stirrer and drop the suppository, without forget to unlock the chronometer
Thus, it is necessary to heat the water until 37° C. Thus a magnetic heating stirrer has been used.

O=C1CCC(=O)N1 [succinimide]
CO2 release (in words): only induces a reduced and delayed release
